The target of this assay is T1, IκBα ubiquitinating enzyme (SCF complex: ROC1, Cullin1, Skp1, His-TrCP1; with E1, UbcH5b) (Homo sapiens, UniProt P62877+P63208+Q13616+Q9Y297).
T1 construct: His (polyhistidine); made in house; host or cells: insect cells (baculovirus) for the SCF complex and His-E1; E. coli for His-UBCH5b
The assay can be described thus: Measurement of ubiquitinating enzyme activity (IκBα ubiquitination, time-resolved fluorescence with Eu(K)-labeled ubiquitin and XL665-labeled anti-GST antibody). It counts as biochemical. Particulars: enzyme activity inhibition test, method (1), Table 5; read-out: EVALUATION
In short, it runs like this:
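Human SCF complex with E1 and UbcH5b ubiquitinated GST-IκBα pre-phosphorylated by IKKβ (2 mM ATP, pH 7.4, 1 h, RT), with Eu(K)-ubiquitin, 30 min RT. Stopped with EDTA, XL665 anti-GST added for 2 h; 665/620 nm TR-FRET ratio. % inhibition versus no-compound control and no-SCF blank gave IC50.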

The results in this text go back to EP1900728A1 (Genecare Research Institute Co., Ltd, priority 2005, dated 2006).

T1 sequence (Q9Y297 whole entry): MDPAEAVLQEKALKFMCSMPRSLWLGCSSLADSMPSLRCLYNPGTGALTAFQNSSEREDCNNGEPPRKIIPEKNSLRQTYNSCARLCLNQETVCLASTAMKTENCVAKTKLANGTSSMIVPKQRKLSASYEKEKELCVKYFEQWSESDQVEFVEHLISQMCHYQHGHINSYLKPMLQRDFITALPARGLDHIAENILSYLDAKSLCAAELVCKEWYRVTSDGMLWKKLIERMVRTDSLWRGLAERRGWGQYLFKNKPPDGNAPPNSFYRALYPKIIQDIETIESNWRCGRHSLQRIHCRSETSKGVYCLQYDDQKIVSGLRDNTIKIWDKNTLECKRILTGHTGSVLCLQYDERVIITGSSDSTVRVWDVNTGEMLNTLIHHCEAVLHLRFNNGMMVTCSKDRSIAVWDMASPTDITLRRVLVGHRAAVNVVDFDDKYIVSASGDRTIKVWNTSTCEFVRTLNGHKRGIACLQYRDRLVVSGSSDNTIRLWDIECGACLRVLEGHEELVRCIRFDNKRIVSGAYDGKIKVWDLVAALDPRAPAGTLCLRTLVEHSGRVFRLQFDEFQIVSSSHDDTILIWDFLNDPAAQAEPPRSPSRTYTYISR
T1 sequence (Q13616 whole entry): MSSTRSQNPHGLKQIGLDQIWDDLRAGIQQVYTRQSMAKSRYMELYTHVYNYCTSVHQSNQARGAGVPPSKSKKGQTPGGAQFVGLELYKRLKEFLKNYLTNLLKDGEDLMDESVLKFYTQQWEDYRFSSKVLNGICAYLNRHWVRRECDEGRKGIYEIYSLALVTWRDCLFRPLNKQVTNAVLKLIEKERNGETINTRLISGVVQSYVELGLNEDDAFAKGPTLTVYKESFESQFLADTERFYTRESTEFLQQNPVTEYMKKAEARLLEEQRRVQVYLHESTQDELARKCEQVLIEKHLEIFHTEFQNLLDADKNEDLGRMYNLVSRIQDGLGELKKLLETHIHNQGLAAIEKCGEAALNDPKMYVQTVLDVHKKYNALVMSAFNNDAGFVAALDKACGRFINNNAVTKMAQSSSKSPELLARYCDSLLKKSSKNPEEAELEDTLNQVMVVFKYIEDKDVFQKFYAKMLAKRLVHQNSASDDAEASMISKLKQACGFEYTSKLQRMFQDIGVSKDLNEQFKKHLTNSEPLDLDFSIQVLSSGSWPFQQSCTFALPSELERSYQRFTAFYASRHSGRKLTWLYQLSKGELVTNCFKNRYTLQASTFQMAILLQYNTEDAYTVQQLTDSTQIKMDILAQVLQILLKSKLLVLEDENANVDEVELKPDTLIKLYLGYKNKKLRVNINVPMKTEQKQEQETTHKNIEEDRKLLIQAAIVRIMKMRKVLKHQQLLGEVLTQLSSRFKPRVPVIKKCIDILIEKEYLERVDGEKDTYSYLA
T1 sequence (P63208 whole entry): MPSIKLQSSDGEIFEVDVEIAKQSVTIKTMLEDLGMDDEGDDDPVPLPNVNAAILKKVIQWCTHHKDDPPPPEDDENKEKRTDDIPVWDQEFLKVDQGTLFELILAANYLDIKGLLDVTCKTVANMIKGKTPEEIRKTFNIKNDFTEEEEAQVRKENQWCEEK
T1 sequence (P62877 whole entry): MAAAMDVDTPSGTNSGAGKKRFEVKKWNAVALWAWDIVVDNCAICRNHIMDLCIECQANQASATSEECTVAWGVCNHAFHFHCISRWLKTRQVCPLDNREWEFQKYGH

Regarding `CC1=NN(c2ccc(S(=O)(=O)N3CCC(O)CC3)cc2)C(=O)/C1=C\c1ccc2c(c1)OCO2` [Compound 162], the IC50 is less than 40 µM. Consider `CCCCC1=NN(c2ccccc2)C(=O)/C1=C\c1ccc2c(c1)OCCO2` [Compound 98], for which the IC50 fell in the range of 10 to 20 µM. As to `CC1=NN(c2ccc(S(N)(=O)=O)cc2)C(=O)/C1=C\c1ccc(-n2cncn2)cc1` [Compound 109], the IC50 was less than 40 µM.

Consider `COc1cc(/C=C2\C(=O)N(c3ccc(S(N)(=O)=O)cc3)N=C2C)ccc1OCn1nnc2ccccc21` [Compound 156], for which the IC50 was 10 to 20 µM. As for `CC1=NN(c2cccc(C(=O)N(C)CCO)c2)C(=O)/C1=C\c1ccc2c(c1)OCCO2` [Compound 414], the figure is 10 to 20 µM.

As to `COCC1=NN(c2ccccc2)C(=O)/C1=C\c1ccc(OCc2ccccc2)c(OC)c1` [Compound 3], the IC50 fell in the range of 10 to 20 µM. Take `COc1cc(/C=C2\C(=O)N(c3ccc(C(=O)O)cc3)N=C2c2ccncc2)ccc1O` [Compound 286]: the IC50 fell in the range of 10 to 20 µM.

As for `COc1cc(/C=C2\C(=O)N(c3ccc(C(=O)O)cc3)N=C2c2cccnc2)ccc1O` [Compound 337], the IC50 fell in the range of 10 to 20 µM. Consider `CC1=NN(c2cccc(S(N)(=O)=O)c2)C(=O)C1=Cc1cc2ccccc2n1C` [Compound 141], for which the IC50 lay in the range of 10 to 20 µM. The figure for `CC1=NN(c2ccc(C(=O)NCC(C)O)cc2)C(=O)C1=Cc1ccc2c(c1)OCCO2` (centres unmarked) [Compound 400] is less than 40 µM; for `CC1=NN(c2ccc(C(=O)O)cc2)C(=O)/C1=C\c1cccs1` [Compound 517] it is less than 40 µM; for `COCC1=NN(c2ccc(C(=O)O)cc2)C(=O)/C1=C\c1ccc2[nH]ccc2c1` [Compound 465] it is less than 10 µM.

Turning to `CC1=NN(c2cccc(C(=O)O)c2)C(=O)/C1=C\c1ccc(N2CCN(C(=O)c3cnoc3)CC2)cc1` [Compound 445], the IC50 is less than 10 µM.

Regarding `CC1=NN(c2cccc(C(=O)O)c2)C(=O)/C1=C\c1ccc2occc2c1` [Compound 368], the IC50 is less than 10 µM. The figure for `CC1=NN(c2ccc(S(N)(=O)=O)cc2)C(=O)/C1=C\c1ccc2occc2c1` [Compound 144] is 10 to 20 µM; for `CC1=NN(c2cccc(C(=O)O)c2)C(=O)/C1=C\c1cccs1` [Compound 508] it is less than 40 µM; for `O=C1/C(=C\c2cccc3nccnc23)C(C2CC2)=NN1c1ccccc1` [Compound 72] it is less than 40 µM.

As to `CC1=NN(c2ccc(S(N)(=O)=O)cc2)C(=O)C1=Cc1cccc2cc[nH]c12` [Compound 151], the IC50 was less than 10 µM. As for `CC1=NN(c2ccc(S(N)(=O)=O)cc2)C(=O)C1=Cc1c[nH]c2ccc(Cl)cc12` [Compound 146], the figure is less than 10 µM.

Turning to `CC1=NN(c2cccc(C(=O)O)c2)C(=O)/C1=C\c1ccc(N2CCN(C(=O)c3ccoc3)CC2)cc1` [Compound 444], the IC50 was less than 10 µM. On to `CC1=NN(c2cccc(S(N)(=O)=O)c2)C(=O)/C1=C\c1ccc(N2CCCC2CO)cc1` (centres unmarked) [Compound 174], for which the IC50 was less than 40 µM. With `CC1=NN(c2ccc(C(=O)O)cc2)C(=O)C1=Cc1c[nH]c2ccc(Cl)cc12` [Compound 378], the IC50 is less than 10 µM. On to `NS(=O)(=O)c1ccc(N2N=C(C3CC3)/C(=C/c3ccc(-n4cccn4)cc3)C2=O)cc1` [Compound 110], for which the IC50 is less than 10 µM. The figure for `COc1ccc(C2=NN(c3ccccc3)C(=O)C2=Cc2ccc(CO)o2)cc1OC` [Compound 35] is less than 40 µM. Regarding `CC1=NN(c2ccc(S(N)(=O)=O)cc2)C(=O)/C1=C\c1ccc(OCC(=O)N(C)C)cc1` [Compound 209], the IC50 lay within 10 to 20 µM.

Turning to `CC1=NN(c2cccc(C(=O)O)c2)C(=O)/C1=C\c1ccc(N2CCCC2CO)cc1` (centres unmarked) [Compound 422], the IC50 is 10 to 20 µM.

Regarding `O=C(O)c1ccc(N2N=C(c3ccccn3)/C(=C/c3ccc4c(c3)OCCO4)C2=O)cc1` [Compound 292], the IC50 lay in the range of 10 to 20 µM. The figure for `CC(C)(C)OC(=O)N1CCN(C(=O)C2=NN(c3ccccc3)C(=O)C2=Cc2ccc(N3CCCC3)cc2)CC1` [Compound 89] is less than 40 µM; for `CCCCC1=NN(c2ccccc2)C(=O)C1=Cc1ccc(N2CCN(C)CC2)cc1` [Compound 106] it is less than 40 µM; for `O=C(O)c1ccc(N2N=C(c3ccoc3)/C(=C/c3ccc4c(c3)OCCO4)C2=O)cc1` [Compound 330] it is less than 10 µM. As for `COc1cc(/C=C2\C(=O)N(c3ccccc3)N=C2c2cccnc2)ccc1O` [Compound 60], the figure is less than 40 µM; as for `COc1cc(/C=C2\C(=O)N(c3ccccc3)N=C2C2CC2)ccc1OCc1ccccc1` [Compound 71], less than 10 µM.

Turning to `CC1=NN(c2ccc(C(=O)N3CCCCC3)cc2)C(=O)/C1=C\c1ccc2[nH]ccc2c1` [Compound 358], the IC50 was less than 10 µM. As for `CC1=NN(c2cccc(C(=O)O)c2)C(=O)C1=Cc1cc2ccccc2n1C` [Compound 359], the IC50 was less than 10 µM.

As to `CCCCC1=NN(c2ccccc2)C(=O)/C1=C\c1ccc(O)c(OC)c1` [Compound 50], the IC50 lay within 10 to 20 µM. Turning to `O=C1/C(=C\c2ccc(-c3ccccc3F)o2)C(Cc2ccccc2)=NN1c1ccccc1` [Compound 26], the IC50 is less than 40 µM.

With `COc1cc(/C=C2\C(=O)N(c3cccc(S(N)(=O)=O)c3)N=C2C)ccc1OCn1nnc2ccccc21` [Compound 157], the IC50 fell in the range of 10 to 20 µM. The figure for `CC1=NN(c2ccc(C(=O)N3CCC(C(=O)O)CC3)cc2)C(=O)/C1=C\c1ccc2[nH]ccc2c1` [Compound 352] is less than 10 µM; for `O=C1/C(=C\c2ccc(CO)o2)C(c2ccncc2)=NN1c1ccccc1` [Compound 44] it is less than 40 µM; for `CCCCC1=NN(c2ccccc2)C(=O)/C1=C\c1ccc(OCc2ccccc2)c(OC)c1` [Compound 52] it is less than 40 µM. As for `CC1=NN(c2ccc(S(N)(=O)=O)cc2)C(=O)C1=Cc1cccc(C(=O)O)c1` [Compound 222], the figure is 10 to 20 µM; as for `CC(=O)OCc1ccc(/C=C2\C(=O)N(c3cccc(C(=O)O)c3)N=C2C)o1` [Compound 516], less than 40 µM; as for `O=C(O)c1ccc(N2N=C(C3CC3)/C(=C/c3ccc(-n4ccnc4)cc3)C2=O)cc1` [Compound 318], less than 10 µM.

In the case of `CCCCC1=NN(c2ccccc2)C(=O)/C1=C\c1ccc(-n2cncn2)cc1` [Compound 59], the IC50 is 10 to 20 µM. The figure for `COC(=O)N1CCN(c2ccc(C=C3C(=O)N(c4ccc(C(=O)O)cc4)N=C3c3ccncc3)cc2)CC1` [Compound 344] is less than 40 µM; for `CC1=NN(c2cccc(C(=O)O)c2)C(=O)/C1=C\c1ccsc1` [Compound 515] it is less than 40 µM; for `CC(=O)OCc1ccc(/C=C2\C(=O)N(c3ccc(C(=O)O)cc3)N=C2C)o1` [Compound 524] it is less than 40 µM. For `COc1ccc(C2=NN(c3ccc(C(=O)O)cc3)C(=O)/C2=C\c2ccc(-n3ccnc3)cc2)cc1OC` [Compound 282], the IC50 was less than 40 µM. The figure for `CC1=NN(c2ccc(C(=O)NCC(C)O)cc2)C(=O)C1=Cc1ccc2c(c1)OCCO2` (centres unmarked) [Compound 398] is less than 40 µM; for `COc1cc(/C=C2\C(=O)N(c3cccc(C(=O)O)c3)N=C2C)ccc1OCc1c(C)noc1C` [Compound 394] it is 10 to 20 µM; for `COC(=O)c1ccc(COc2ccc(/C=C3\C(=O)N(c4ccccc4)N=C3C)cc2OC)cc1` [Compound 122] it is less than 40 µM. Regarding `CC1=NN(c2cccc(C(=O)N3CCC(CO)CC3)c2)C(=O)/C1=C\c1ccc2c(c1)OCCO2` [Compound 383], the IC50 is less than 40 µM. Regarding `O=C1/C(=C\c2ccc(N3CCCC3)cc2)C(c2ccncc2)=NN1c1ccccc1` [Compound 45], the IC50 is less than 40 µM.

Turning to `O=C(O)c1ccc(N2N=C(Cc3ccccc3)/C(=C/c3nccs3)C2=O)cc1` [Compound 270], the IC50 was less than 40 µM. In the case of `CC1=NN(c2ccc(C(=O)O)cc2)C(=O)/C1=C\c1ccc(S(=O)(=O)O)o1` [Compound 525], the IC50 was in the range of 10 to 20 µM.

On to `CC1=NN(c2cccc(C(=O)O)c2)C(=O)/C1=C\c1ccc(N2CCC(C(=O)O)CC2)cc1` [Compound 424], for which the IC50 was less than 10 µM. `CC1=NN(c2cccc(C(=O)O)c2)C(=O)/C1=C\c1c[nH]c2ccc(Cl)cc12` [Compound 377]: the IC50 is less than 10 µM. As for `CC1=NN(c2ccccc2)C(=O)/C1=C\c1ccc(OCC(=O)Nc2ccccc2)cc1` [Compound 205], the figure is less than 40 µM. The figure for `COc1ccc(C2=NN(c3ccc(C(=O)O)cc3)C(=O)C2=Cc2ccc(-n3cccn3)cc2)cc1OC` [Compound 342] is less than 40 µM. In the case of `CC1=NN(c2ccc(C(=O)N(C)C)cc2)C(=O)/C1=C\c1ccc2[nH]ccc2c1` [Compound 363], the IC50 fell in the range of 10 to 20 µM. The figure for `CC1=NN(c2cccc(C(=O)O)c2)C(=O)/C1=C\c1ccc(N2CCNCC2)cc1` [Compound 452] is less than 10 µM; for `COc1cc(C=C2C(=O)N(c3ccc(S(N)(=O)=O)cc3)N=C2C)ccc1OCC1CCCCC1` [Compound 161] it is less than 40 µM.
